Laboratory results from patent US20260250318A1, “COMPOSITIONS AND METHODS FOR CROSSING THE BLOOD BRAIN BARRIER” (VOYAGER THERAPEUTICS, INC., priority 2022, published 2026).

Legend:
Details in all cases: synthetic library passage 3, intravenous, relative to wild-type AAV9
[1] = test system: brain, spinal cord, and DRG of the NHPs; test: NGS fold enrichment of synthetic library (passage 3) in NHPs, first cross-species screen; type: in vivo, cynomolgus macaques (Macaca fascicularis)
Procedure, shortened: (§1)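 Synthetic capsid library (passage 3) was given intravenously […] to NHPs aged 2-4 years and to BALB/c and C57Bl/6 mice (n=3 each, 6-8 weeks). After about 28 days in vivo, tissue RNA was RT-PCR amplified and NGS-sequenced; values are fold enrichment per variant relative to wild-type AAV9.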

brain [2] = test: NGS fold enrichment of synthetic library (passage 3) in C57Bl/6 mice, first cross-species screen; type: in vivo
Procedure, shortened: as §1

brain [3] = test: NGS fold enrichment of synthetic library (passage 3) in BALB/c mice, first cross-species screen; type: in vivo
Procedure, shortened: as §1

[4] = RNA from spinal cord of NHPs, NGS
[5] = RNA from brain of C57Bl/6 mice, NGS
[6] = RNA from brain of BALB/c mice, NGS

Sequence	Fold enrichment over AAV9 in the brain of NHPs ([1]; RNA NGS, brain of NHPs) [fold]	Fold enrichment over AAV9 in the spinal cord of NHPs ([1]; RNA NGS, spinal cord of NHPs) [fold]	Fold enrichment over AAV9 in the brain of Mice (C57Bl/6) (brain [2]; RNA NGS, brain of C57Bl/6 mice) [fold]	Fold enrichment over AAV9 in the brain of Mice (BALB/c) (brain [3]; RNA NGS, brain of BALB/c mice) [fold]	Fold enrichment over AAV9 in the brain of NHPs ([1]; RNA from brain of NHPs, NGS) [fold]	Fold enrichment over AAV9 in the spinal cord of NHPs [1, 4] [fold]	Fold enrichment over AAV9 in the brain of Mice (C57Bl/6) (brain [2]; [5]) [fold]	Fold enrichment over AAV9 in the brain of Mice (BALB/c) (brain [3]; [6]) [fold]
GSGNPVSHLQNQQT	1.121	1.037	0.583	0.310	–	–	–	–
GSGNYRDHEQNQQT	–	–	–	–	1.193	7.389	0.287	0.222
GSGPILGQLQNQQT	2.097	2.058	0.470	0.123	–	–	–	–
GSGPQSHTGQNQQT	1.757	9.490	0.958	0.447	–	–	–	–
GSGPSISHGQNQQT	1.000	0.000	0.614	0.665	–	–	–	–
GSGPWSAGLQNQQT	1.067	0.947	0.700	0.539	–	–	–	–
GSGQAAKSSQNQQT	1.036	0.681	0.778	0.737	–	–	–	–
GSGQALLSTGNQQT	–	–	–	–	1.377	0.847	0.536	0.370
GSGQALSSSGNQQT	–	–	–	–	1.351	6.860	0.894	0.931
GSGQARAHRGNQQT	1.017	0.000	0.254	0.386	–	–	–	–
GSGQASSKSANQQT	–	–	–	–	1.339	1.138	0.500	0.175
GSGQDMKQHHNQQT	1.501	1.638	0.358	0.239	–	–	–	–
GSGQDRHIVQNQQT	1.527	11.068	0.285	0.162	–	–	–	–
GSGQDRNIVQNQQT	2.112	0.229	0.454	0.632	–	–	–	–
GSGQDVTKTGNQQT	–	–	–	–	1.173	4.523	0.531	0.035
GSGQEHRSLANQQT	1.046	0.000	0.507	0.344	–	–	–	–
GSGQFTNAGMNQQT	2.969	0.936	0.565	0.418	–	–	–	–
GSGQGIHSSVNQQT	1.981	4.873	0.632	0.634	–	–	–	–
GSGQGPQERGNQQT	1.702	1.269	0.846	0.313	–	–	–	–
GSGQHAAPGHNQQT	–	–	–	–	1.195	5.999	0.600	0.199
